According to patent publication US20130225548A1, “Pyridine Derivative and Medicinal Agent” (NIPPON SHINYAKU CO., LTD., priority 2010, published 2013):
Counter-ions that a name gives are not always drawn.

These compounds were tested against T1, Syk tyrosine kinase (Homo sapiens, UniProt P43405) (assay: Test for Syk tyrosine kinase inhibitory activity (ELISA)). Settings: Syk tyrosine kinase (Carna Biosciences), 25 μM ATP in substrate solution, 30° C. 1 hour, n=2; read-out: Evaluation (IC50, concentration inhibiting the tyrosine kinase activity at 50%).
T1 construct: purchased Carna Biosciences, Inc
Format: biochemical
Outline: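 Syk kinase (0.025 nM stock before addition) with 625 nM biotinylated peptide and 25 μM ATP (substrate-solution levels) in Tris pH 7.5, MgCl2, DTT; 1 h at 30 °C on streptavidin plates. Phosphotyrosine detected by HRP anti-pTyr antibody, TMB, A450; IC50 by non-linear regression.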
`N#Cc1ccnc(Nc2cc(C3CC3)cc(-c3cnc(N4CCS(=O)(=O)CC4)nc3)n2)c1` [Example 105, 2-({4-cyclopropyl-6-[2-(1,1-dioxidethiomorpholin-4-yl)pyrimidin-5-yl]pyridin-2-yl}amino)pyridine-4-carbonitrile hydrochloride] gave an IC50 of 0.05 to 0.5 µM. Work on `N#Cc1ccnc(Nc2cc(C3CC3)cc(-c3cnc(N4CCCN(C(N)=O)CC4)nc3)n2)c1` [Example 106, 4-(5-{6-[(4-cyanopyridin-2-yl)amino]-4-cyclopropylpyridin-2-yl}pyrimidin-2-yl)-1,4-diazepane-1-carboxamide hydrochloride] yielded an IC50 of 0.005 to 0.05 µM. Work on `CN(C)CCOc1cncc(-c2cc(C3CC3)cc(Nc3cc(C#N)ccn3)n2)c1` [Example 107, 2-({4-cyclopropyl-5′-[2-(dimethylamino)ethoxy]-2,3′-bipyridin-6-yl}amino)pyridine-4-carbonitrile hydrochloride] yielded an IC50 of 0.005 to 0.05 µM. `CN(C)C(C)(C)COc1cncc(-c2cc(C3CC3)cc(Nc3cc(C#N)ccn3)n2)c1` [Example 108, 2-({4-cyclopropyl-5′-[2-(dimethylamino)-2-methylpropoxy]-2,3′-bipyridin-6-yl}amine)pyridine-4-carbonitrile hydrochloride] was tested, and the IC50 was 0.05 to 0.5 µM. `N#Cc1ccnc(Nc2cc(C3CC3)cc(-c3cncc(OCC(N)=O)c3)n2)c1` [Example 109, 2-({6-[(4-cyanopyridin-2-yl)amino]-4-cyclopropyl-2,3′-bipyridin-5′-yl}oxy)acetamide hydrochloride] showed an IC50 of 0.005 to 0.05 µM. `CC(=O)N1CCCN(c2cncc(-c3cc(C4CC4)cc(Nc4cc(C#N)ccn4)n3)c2)CC1` [Example 110, 2-{[5′-(4-acetyl-1,4-diazepan-1-yl)-4-cyclopropyl-2,3′-bipyridin-6-yl]amino}pyridine-4-carbonitrile hydrochloride] gave an IC50 of 0.05 to 0.5 µM. Compound `N#Cc1ccnc(Nc2cc(C3CC3)cc(-c3cncc(N4CCC(O)C4)c3)n2)c1` (stereo not shown) [Example 111, 2-{[4-cyclopropyl-5′-(3-hydroxypyrrolidin-1-yl)-2,3′-bipyridin-6-yl]amino}pyridine-4-carbonitrile hydrochloride] has an IC50 of 0.005 to 0.05 µM. In the case of `N#Cc1ccnc(Nc2cc(C3CC3)cc(-c3cncc(N4CCC[C@H](O)C4)c3)n2)c1` [Example 112, 2-({4-cyclopropyl-5′-[(3S)-3-hydroxypiperidin-1-yl]-2,3′-bipyridin-6-yl}amino)pyridine-4-carbonitrile hydrochloride], the IC50 is reported as under 0.005 µM. Work on `N#Cc1ccnc(Nc2cc(C3CC3)cc(-c3cncc(N4CCC[C@@H](O)C4)c3)n2)c1` [Example 113, 2-({4-cyclopropyl-5′-[(3R)-3-hydroxypiperidin-1-yl]-2,3′-bipyridin-6-yl}amino)pyridine-4-carbonitrile hydrochloride] yielded an IC50 of 0.005 to 0.05 µM. With `Cn1cc(-c2cncc(-c3cc(C4CC4)cc(Nc4cc(C#N)ccn4)n3)c2)cn1` [Example 114, 2-{[4-cyclopropyl-5′-(1-methyl-1H-pyrazol-4-yl)-2,3′-bipyridin-6-yl]amino}pyridine-4-carbonitrile hydrochloride] the IC50 was 0.05 to 0.5 µM. For `N#Cc1ccnc(Nc2cc(C3CC3)cc(-c3cncc(N4CCNC(=O)C4)c3)n2)c1` [Example 115, 2-{[4-cyclopropyl-5′-(3-oxopiperazin-1-yl)-2,3′-bipyridin-6-yl]amino}pyridine-4-carbonitrile], the IC50 was under 0.005 µM. For `N#Cc1ccnc(Nc2cc(C3CC3)cc(-c3cncc(N4CCC(O)CC4)c3)n2)c1` [Example 116, 2-{[4-cyclopropyl-5′-(4-hydroxypiperidin-1-yl)-2,3′-bipyridin-6-yl]amino}pyridine-4-carbontrile hydrochloride], the IC50 was 0.005 to 0.05 µM. Work on `N#Cc1ccnc(Nc2cc(C3CC3)cc(-c3ccc4c(c3)ncn4C(CO)CO)n2)c1` [Example 117, 2-({4-cyclopropy-6-[1-(1,3-dihydroxypropan-2-yl)-1H-benzimidazol-5-yl)]pyridin-2-yl}amino)pyridine-4-carbonitrile hydrochloride] yielded an IC50 of 0.005 to 0.05 µM. `CC(C)(O)Cn1cnc2cc(-c3cc(C4CC4)cc(Nc4cc(C#N)ccn4)n3)ccc21` [Example 118, 2-({4-cyclopropyl-6-[1-(2-hyroxy-2-methylpropyl)-1H-benzimidazol-5-yl]pyridin-2-yl}amino)pyridine-4-carbonitrile hydrochloride] showed an IC50 of 0.05 to 0.5 µM. For `CC(C)(CO)Cn1cnc2cc(-c3cc(C4CC4)cc(Nc4cc(C#N)ccn4)n3)ccc21` [Example 119, 2-({4-cyclopropyl-6-[1-(3-hydroxy-2,2-dimethylpropyl)-1H-benzimidazol-5-yl]pyridin-2-yl}amino)pyridine-4-carbonitrile hydrochloride], the IC50 was 0.05 to 0.5 µM. With `N#Cc1ccnc(Nc2cc(C3CC3)cc(-c3ccc4c(c3)ncn4CC3(O)CCCCC3)n2)c1` [Example 120, 2-[(4-cyclopropyl-6-{1-[(1-hydroxycyclohexyl)methyl]-1H-benzimidazol-5-yl}pyridin-2-yl)amino]pyridine-4-carbonitrile hydrochloride] the IC50 was 0.05 to 0.5 µM. Compound `N#Cc1ccnc(Nc2cc(C3CC3)cc(-c3ccc4c(c3)ncn4CCCO)n2)c1` [Example 121, 2-({4-cyclopropyl-6-[1-(3-hydroxypropyl)-1H-benzimidazol-5-yl]pyridin-2-yl}amino)pyridine-4-carbonitrile hydrochloride] has an IC50 of 0.05 to 0.5 µM. In the case of `N#Cc1ccnc(Nc2cc(C3CC3)cc(-c3ccc4ncn([C@H]5CC[C@H](O)CC5)c4c3)n2)c1` [Example 122, 2-({4-cyclopropyl-6-[1-(trans-4-hydroxycyclohexyl)-1H-benzimidazol-6-yl]pyridin-2-yl}amino)pyridine-4-carbonitrile hydrochloride], the IC50 is reported as under 0.005 µM. `CCOC(=O)CCn1cnc2cc(-c3cc(C4CC4)cc(Nc4cc(C#N)ccn4)n3)ccc21` [Example 123, ethyl 3-(5-{6-[(4-cyanopyridin-2-yl)amino]-4-cyclopropylpyridin-2-yl}-1H-benzimidazol-1-yl)propanonate hydrochloride] was tested, and the IC50 was 0.05 to 0.5 µM. `CN(C)C(=O)CCn1cnc2ccc(-c3cc(C4CC4)cc(Nc4cc(C#N)ccn4)n3)cc21` [Example 125, 3-(6-{6-[(4-cyanopyridin-2-yl)amino]-4-cyclopropylpyridin-2-yl}-1H-benzimadazol-1-yl)-N,N-dimethylpropanamide hydrochloride] showed an IC50 of 0.05 to 0.5 µM. In the case of `COC(=O)CCn1cnc2ccc(-c3cc(C4CC4)cc(Nc4cc(C#N)ccn4)n3)cc21` [Example 126, methyl 3-(6-{6-[(4-cyanopyridin-2-yl)amino]-4-cyclopropylpyridin-2-yl}1H-benzimidazol-1-yl)propanonate hydrochloride], the IC50 is reported as 0.05 to 0.5 µM. `N#Cc1ccnc(Nc2cc(C3CC3)cc(-c3ccc4ncn(CCCCO)c4c3)n2)c1` [Example 127, 2-({4-cyclopropyl-6-[1-(4-hydroxybutyl)-1H-benzimidaxol-6-yl]pyridin-2-yl}amino)pyridine-4-carbonitrile hydrochloride] gave an IC50 of 0.005 to 0.05 µM. Work on `N#Cc1ccnc(Nc2cc(C3CC3)cc(-c3ccc4c(c3)ncn4CCC(N)=O)n2)c1` [Example 129, 3-(5-{6-[(4-cyanopyridin-2-yl)amino]-4-cyclopropylpyridin-2-yl}-1H-benzimidazol-1-yl)propanamide hydrochloride] yielded an IC50 of 0.005 to 0.05 µM. `N#Cc1ccnc(Nc2cc(C3CC3)cc(-c3ccc4ncn(Cc5cccnc5)c4c3)n2)c1` [Example 130, 2-({4-cyclopropyl-6-[1-(pyridin-3-ylmethyl)-1H-benzimidazol-6-yl]pyridin-2-yl}amino)pyridine-4-carbonitrile hydrochloride] gave an IC50 of 0.05 to 0.5 µM. `CN(C)C(=O)CCn1cnc2cc(-c3cc(C4CC4)cc(Nc4cc(C#N)ccn4)n3)ccc21` [Example 131, 3-(5-{6-[(4-cyanopyridin-2-yl)amino]-4-cyclopropylpyridin-2-yl}-1H-benzimidazol-1-yl)-N,N-dimethylproanamide hydrochloride] was tested, and the IC50 was 0.05 to 0.5 µM. Work on `CNC(=O)CCn1cnc2cc(-c3cc(C4CC4)cc(Nc4cc(C#N)ccn4)n3)ccc21` [Example 132, 3-(5-{6-[(4-cyanopyridin-2-yl)amino]-4-cyclopropylpyridin-2-yl}-1H-benzimidazol-1-yl)-N-methylpropanamide hydrochloride] yielded an IC50 of 0.05 to 0.5 µM. `N#Cc1ccnc(Nc2cc(C3CC3)cc(-c3ccc4ncn(Cc5ccncc5)c4c3)n2)c1` [Example 133, 2-({4-cyclopropyl-6-[1-(pyridin-4-ylmethyl)-1H-benzimidazol-6-yl]pyridin-2-yl}amino)pyridine-4-carbonitrile hydrochloride] showed an IC50 of 0.005 to 0.05 µM. Compound `N#CCCn1cnc2cc(-c3cc(C4CC4)cc(Nc4cc(C#N)ccn4)n3)ccc21` [Example 134, 2-({6-[1-(2-cyanoethyl)-1H-benzimidazol-5-yl]-4-cyclopropylpyridin-2-yl}amino)pyridine-4-carbonitrile hydrochloride] has an IC50 of 0.005 to 0.05 µM. Compound `N#Cc1ccnc(Nc2cc(C3CC3)cc(-c3ccc4ncn(C5(CO)CCCCC5)c4c3)n2)c1` [Example 135, 2-[(4-cyclopropyl-6-(1-[1-(hydroxymethyl)cyclohexyl]-1H-benzimidazol-6-yl)pyridin-2-yl)amino]pyridine-4-carbonitrile hydrochloride] has an IC50 of 0.005 to 0.05 µM. For `N#Cc1ccnc(Nc2cc(C3CC3)cc(-c3ccc4ncn(C5CCC(F)(F)CC5)c4c3)n2)c1` [Example 136, 2-({4-cyclopropyl-6-[1-(4,4-difluorocyclohexyl)-1H-benzimidazol-6-yl]pyridine-2-yl}amino)pyridine-4-carbonitrile hydrochloride], the IC50 was 0.05 to 0.5 µM. Work on `N#Cc1ccnc(Nc2cc(C3CC3)cc(-c3ccc4c(c3)ncn4Cc3ccccc3)n2)c1` [Example 137, 2-{[6-(1-benzyl-1H-benzimidazol-5-yl)-4-cyclopropylpyridin-2-yl]amino}pyridine-4-carbonitrile hydrochloride] yielded an IC50 of 0.05 to 0.5 µM.
